{"source": "ChEMBL document CHEMBL4800722", "about": "“Data for DCP probe BI 605906” (2021)", "key": {"[1]": {"biological_target": "3-phosphoinositide-dependent protein kinase 1 (Homo sapiens) (UniProt O15530)", "sequence (O15530 whole entry, looked up)": "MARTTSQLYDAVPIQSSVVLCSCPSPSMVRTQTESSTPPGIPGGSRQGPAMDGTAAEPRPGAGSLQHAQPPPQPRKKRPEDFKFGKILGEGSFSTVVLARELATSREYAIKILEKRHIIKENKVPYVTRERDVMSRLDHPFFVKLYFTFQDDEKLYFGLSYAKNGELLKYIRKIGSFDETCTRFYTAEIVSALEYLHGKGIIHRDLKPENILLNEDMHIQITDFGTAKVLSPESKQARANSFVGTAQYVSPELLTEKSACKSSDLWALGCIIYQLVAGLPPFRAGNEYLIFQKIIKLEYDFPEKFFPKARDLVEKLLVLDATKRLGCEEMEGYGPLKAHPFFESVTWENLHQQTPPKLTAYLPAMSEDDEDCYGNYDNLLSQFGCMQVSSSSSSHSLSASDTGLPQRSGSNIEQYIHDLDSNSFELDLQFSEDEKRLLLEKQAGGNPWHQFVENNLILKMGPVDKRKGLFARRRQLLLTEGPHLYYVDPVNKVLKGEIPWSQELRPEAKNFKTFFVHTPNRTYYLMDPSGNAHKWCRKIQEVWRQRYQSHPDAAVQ"}, "[2]": {"biological_target": "Mitogen-activated protein kinase kinase kinase 9 (Homo sapiens) (UniProt P80192)", "details": "Compound concentration 1.0 uM"}, "[3]": {"biological_target": "Serine/threonine-protein kinase MRCK alpha (Homo sapiens) (UniProt Q5VT25)", "details": "Compound concentration 1.0 uM"}, "[4]": {"biological_target": "Casein kinase I isoform alpha-like (Homo sapiens) (UniProt Q8N752)", "assay": "CSNK1A1L Invitrogen Lab (UK) kinase screen (BI)", "details": "Compound concentration 1.0 uM"}, "[5]": {"biological_target": "DNA-dependent protein kinase catalytic subunit (Homo sapiens) (UniProt P78527)", "details": "Compound concentration 1.0 uM"}, "[6]": {"biological_target": "3-phosphoinositide-dependent protein kinase 1 (Homo sapiens) (UniProt O15530)", "details": "Compound concentration 10.0 uM"}, "[7]": {"biological_target": "Tyrosine-protein kinase BTK (Homo sapiens) (UniProt Q06187)", "sequence (Q06187 whole entry)": "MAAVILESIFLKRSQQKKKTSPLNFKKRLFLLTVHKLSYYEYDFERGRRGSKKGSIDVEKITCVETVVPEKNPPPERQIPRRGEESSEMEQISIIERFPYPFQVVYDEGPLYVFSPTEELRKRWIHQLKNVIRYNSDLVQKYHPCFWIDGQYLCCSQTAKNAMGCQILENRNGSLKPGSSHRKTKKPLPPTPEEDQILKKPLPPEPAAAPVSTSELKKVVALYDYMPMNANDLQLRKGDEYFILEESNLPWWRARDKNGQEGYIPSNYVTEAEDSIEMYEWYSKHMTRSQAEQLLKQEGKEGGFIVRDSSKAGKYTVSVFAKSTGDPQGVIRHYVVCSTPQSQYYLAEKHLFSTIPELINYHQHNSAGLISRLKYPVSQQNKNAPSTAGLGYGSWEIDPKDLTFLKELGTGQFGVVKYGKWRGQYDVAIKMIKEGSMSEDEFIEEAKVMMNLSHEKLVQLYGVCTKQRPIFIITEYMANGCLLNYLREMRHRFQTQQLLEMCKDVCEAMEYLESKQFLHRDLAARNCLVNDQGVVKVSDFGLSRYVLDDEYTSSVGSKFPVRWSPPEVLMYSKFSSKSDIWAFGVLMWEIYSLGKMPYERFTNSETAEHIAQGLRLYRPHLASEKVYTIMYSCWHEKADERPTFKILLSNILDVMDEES"}, "[8]": {"biological_target": "Serine/threonine-protein kinase 33 (Homo sapiens) (UniProt Q9BYT3)", "assay": "STK33 Invitrogen Lab (UK) kinase screen (BI)", "details": "Compound concentration 1.0 uM"}, "[9]": {"biological_target": "Calcium/calmodulin-dependent protein kinase type 1 (Homo sapiens) (UniProt Q14012)", "details": "Compound concentration 1.0 uM"}, "[10]": {"biological_target": "Sodium-dependent serotonin transporter (Homo sapiens) (UniProt P31645)", "details": "Compound concentration 10.0 uM"}, "[11]": {"biological_target": "Adrenergic receptor alpha-2 (Rattus norvegicus) (UniProt P22086+P19328+P22909)", "assay": "ALPHA2/R Eurofins SafetyScreen44 (BI)", "format": "protein assay"}, "[12]": {"biological_target": "STE20-like serine/threonine-protein kinase (Homo sapiens) (UniProt Q9H2G2)", "details": "Compound concentration 1.0 uM"}, "[13]": {"biological_target": "Serine/threonine-protein kinase 17B (Homo sapiens) (UniProt O94768)", "details": "Compound concentration 1.0 uM"}, "[14]": {"biological_target": "Proto-oncogene tyrosine-protein kinase Src (Homo sapiens) (UniProt P12931)", "sequence (P12931 2-536 limits assumed)": "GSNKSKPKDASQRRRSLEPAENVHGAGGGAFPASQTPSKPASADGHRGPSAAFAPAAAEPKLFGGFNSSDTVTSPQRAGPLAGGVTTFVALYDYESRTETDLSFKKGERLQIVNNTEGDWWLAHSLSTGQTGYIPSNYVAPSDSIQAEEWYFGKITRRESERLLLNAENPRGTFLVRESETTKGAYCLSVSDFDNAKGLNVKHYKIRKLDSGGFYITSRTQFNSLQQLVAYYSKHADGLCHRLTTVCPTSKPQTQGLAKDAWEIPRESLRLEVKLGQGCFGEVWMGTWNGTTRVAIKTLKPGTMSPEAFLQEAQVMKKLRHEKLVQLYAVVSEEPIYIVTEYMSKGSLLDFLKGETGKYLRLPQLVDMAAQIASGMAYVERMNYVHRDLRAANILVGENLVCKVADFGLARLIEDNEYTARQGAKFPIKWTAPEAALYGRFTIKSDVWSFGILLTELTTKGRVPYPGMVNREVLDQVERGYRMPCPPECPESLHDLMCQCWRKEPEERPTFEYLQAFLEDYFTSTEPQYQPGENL", "assay": "SRC N1 Invitrogen Lab (UK) kinase screen (BI)", "details": "Compound concentration 1.0 uM"}, "[15]": {"biological_target": "Serine/threonine-protein kinase SBK1 (Homo sapiens) (UniProt Q52WX2)", "details": "Compound concentration 1.0 uM"}, "[16]": {"biological_target": "D(1A) dopamine receptor (Homo sapiens) (UniProt P21728)", "details": "Compound concentration 10.0 uM"}, "[17]": {"biological_target": "Peripheral plasma membrane protein CASK (Homo sapiens) (UniProt O14936)", "assay": "CASK Invitrogen Lab (UK) kinase screen (BI)", "details": "Compound concentration 1.0 uM"}, "[18]": {"biological_target": "Myosin-IIIb (Homo sapiens) (UniProt Q8WXR4)", "details": "Compound concentration 1.0 uM"}, "[19]": {"biological_target": "Serine/threonine-protein kinase 38 (Homo sapiens) (UniProt Q15208)", "assay": "STK38 (NDR) Invitrogen Lab (UK) kinase screen (BI)", "details": "Compound concentration 1.0 uM"}, "[20]": {"biological_target": "AMP-activated protein kinase (AMPK) alpha-1/beta-1/gamma-1 (Homo sapiens) (UniProt P54619+Q9Y478+Q13131)", "sequence (P54619 whole entry)": "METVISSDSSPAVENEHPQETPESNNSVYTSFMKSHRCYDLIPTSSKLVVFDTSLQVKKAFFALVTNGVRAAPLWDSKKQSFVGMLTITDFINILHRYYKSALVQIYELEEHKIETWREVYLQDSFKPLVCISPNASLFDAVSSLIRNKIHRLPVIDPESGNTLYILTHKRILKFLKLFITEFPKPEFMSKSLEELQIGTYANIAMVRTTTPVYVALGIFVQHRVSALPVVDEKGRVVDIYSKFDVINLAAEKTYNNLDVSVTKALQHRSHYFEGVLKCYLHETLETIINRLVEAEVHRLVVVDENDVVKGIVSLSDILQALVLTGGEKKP", "sequence (Q13131 whole entry partner)": "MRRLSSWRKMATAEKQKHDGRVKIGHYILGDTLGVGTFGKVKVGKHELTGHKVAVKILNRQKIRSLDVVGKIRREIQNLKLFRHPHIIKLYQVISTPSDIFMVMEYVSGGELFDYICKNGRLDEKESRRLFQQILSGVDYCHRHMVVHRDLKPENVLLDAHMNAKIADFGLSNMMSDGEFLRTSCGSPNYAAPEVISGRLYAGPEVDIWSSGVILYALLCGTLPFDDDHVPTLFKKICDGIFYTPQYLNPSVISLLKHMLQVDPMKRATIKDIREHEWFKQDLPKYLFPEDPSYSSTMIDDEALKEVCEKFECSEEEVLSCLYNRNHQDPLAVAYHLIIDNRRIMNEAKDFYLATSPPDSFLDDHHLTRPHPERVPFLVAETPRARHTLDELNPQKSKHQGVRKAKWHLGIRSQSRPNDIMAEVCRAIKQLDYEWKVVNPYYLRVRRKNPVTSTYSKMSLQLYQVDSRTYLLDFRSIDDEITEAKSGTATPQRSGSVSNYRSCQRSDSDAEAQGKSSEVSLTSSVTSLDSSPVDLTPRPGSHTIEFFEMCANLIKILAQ", "sequence (Q9Y478 2-270 partner limits assumed)": "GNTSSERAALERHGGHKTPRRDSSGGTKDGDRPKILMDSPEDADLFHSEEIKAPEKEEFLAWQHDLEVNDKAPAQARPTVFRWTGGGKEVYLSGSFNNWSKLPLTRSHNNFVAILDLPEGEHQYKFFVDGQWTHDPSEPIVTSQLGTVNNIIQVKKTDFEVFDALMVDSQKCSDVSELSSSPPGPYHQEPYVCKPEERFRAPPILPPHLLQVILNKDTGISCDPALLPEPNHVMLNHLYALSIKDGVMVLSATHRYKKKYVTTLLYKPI"}, "[21]": {"biological_target": "Sphingosine kinase 1 (Homo sapiens) (UniProt Q9NYA1)", "assay": "SPHK1 Invitrogen Lab (UK) kinase screen (BI)", "details": "Compound concentration 1.0 uM"}, "[22]": {"biological_target": "CDK2/Cyclin A1 (Homo sapiens) (UniProt P24941+P78396)", "assay": "CDK2/CYCLIN A1 Invitrogen Lab (UK) kinase screen (BI)", "format": "protein-complex assay", "details": "Compound concentration 1.0 uM"}, "[23]": {"biological_target": "Cyclin-dependent kinase 9 (Homo sapiens) (UniProt P50750)", "assay": "CDK9CYCLIN Invitrogen Lab (UK) kinase screen (BI)", "details": "Compound concentration 1.0 uM"}, "[24]": {"biological_target": "5-hydroxytryptamine receptor 6 (Homo sapiens) (UniProt P50406)", "details": "Compound concentration 10.0 uM"}, "[25]": {"biological_target": "Cytoplasmic tyrosine-protein kinase BMX (Homo sapiens) (UniProt P51813)", "assay": "BMX Invitrogen Lab (UK) kinase screen (BI)", "details": "Compound concentration 1.0 uM"}, "[26]": {"biological_target": "Phospholipase A2 (Sus scrofa) (UniProt A0A8D1VEY7)", "details": "Compound concentration 10.0 uM"}, "[27]": {"biological_target": "Tyrosine-protein kinase Lck (Homo sapiens) (UniProt P06239)", "sequence (P06239 2-509 limits assumed)": "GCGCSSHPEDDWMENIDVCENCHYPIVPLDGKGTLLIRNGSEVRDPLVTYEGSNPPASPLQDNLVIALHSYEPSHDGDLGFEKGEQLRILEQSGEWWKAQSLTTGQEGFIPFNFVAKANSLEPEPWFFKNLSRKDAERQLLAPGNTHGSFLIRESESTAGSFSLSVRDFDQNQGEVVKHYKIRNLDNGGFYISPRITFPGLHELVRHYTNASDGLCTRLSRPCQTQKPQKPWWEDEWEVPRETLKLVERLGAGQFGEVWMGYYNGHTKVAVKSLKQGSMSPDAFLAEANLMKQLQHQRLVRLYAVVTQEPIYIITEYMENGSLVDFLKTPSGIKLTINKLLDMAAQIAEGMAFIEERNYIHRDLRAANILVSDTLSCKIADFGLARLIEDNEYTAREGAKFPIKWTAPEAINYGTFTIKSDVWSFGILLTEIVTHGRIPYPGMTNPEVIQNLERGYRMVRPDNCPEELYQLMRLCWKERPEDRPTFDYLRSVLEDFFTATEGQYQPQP", "assay": "LCK Invitrogen Lab (UK) kinase screen (BI)"}, "[28]": {"biological_target": "Serine/threonine-protein kinase Chk2 (Homo sapiens) (UniProt O96017)", "assay": "CHEK2 Invitrogen Lab (UK) kinase screen (BI)", "details": "Compound concentration 1.0 uM"}, "[29]": {"biological_target": "Serine/threonine-protein kinase NIM1 (Homo sapiens) (UniProt Q8IY84)", "details": "Compound concentration 1.0 uM"}, "[30]": {"biological_target": "Eukaryotic elongation factor 2 kinase (Homo sapiens) (UniProt O00418)", "details": "Compound concentration 1.0 uM"}, "[31]": {"biological_target": "Bone morphogenetic protein receptor type-1B (Homo sapiens) (UniProt O00238)", "assay": "BMPR1B (ALK6) Invitrogen Lab (UK) kinase screen (BI)", "details": "Compound concentration 1.0 uM"}, "[32]": {"biological_target": "Homeodomain-interacting protein kinase 2 (Homo sapiens) (UniProt Q9H2X6)", "assay": "HIPK2 Invitrogen Lab (UK) kinase screen (BI)", "details": "Compound concentration 1.0 uM"}, "[33]": {"biological_target": "cGMP-dependent protein kinase 2 (Homo sapiens) (UniProt Q13237)", "details": "Compound concentration 1.0 uM"}, "[34]": {"biological_target": "Rho-associated protein kinase 2 (Homo sapiens) (UniProt O75116)", "details": "Compound concentration 1.0 uM"}, "[35]": {"biological_target": "Serine/threonine-protein kinase Sgk1 (Homo sapiens) (UniProt O00141)", "details": "Compound concentration 1.0 uM"}, "[36]": {"biological_target": "Mitogen-activated protein kinase kinase kinase 14 (Homo sapiens) (UniProt Q99558)", "details": "Compound concentration 1.0 uM"}, "[37]": {"biological_target": "PI3-kinase p110-delta/p85-alpha (Homo sapiens) (UniProt P27986+O00329)", "details": "Compound concentration 1.0 uM"}, "[38]": {"biological_target": "Bone morphogenetic protein receptor type-1A (Homo sapiens) (UniProt P36894)", "details": "Compound concentration 1.0 uM"}, "[39]": {"biological_target": "Fibroblast growth factor receptor 1 (Homo sapiens) (UniProt P11362)", "sequence (P11362 22-822 limits assumed)": "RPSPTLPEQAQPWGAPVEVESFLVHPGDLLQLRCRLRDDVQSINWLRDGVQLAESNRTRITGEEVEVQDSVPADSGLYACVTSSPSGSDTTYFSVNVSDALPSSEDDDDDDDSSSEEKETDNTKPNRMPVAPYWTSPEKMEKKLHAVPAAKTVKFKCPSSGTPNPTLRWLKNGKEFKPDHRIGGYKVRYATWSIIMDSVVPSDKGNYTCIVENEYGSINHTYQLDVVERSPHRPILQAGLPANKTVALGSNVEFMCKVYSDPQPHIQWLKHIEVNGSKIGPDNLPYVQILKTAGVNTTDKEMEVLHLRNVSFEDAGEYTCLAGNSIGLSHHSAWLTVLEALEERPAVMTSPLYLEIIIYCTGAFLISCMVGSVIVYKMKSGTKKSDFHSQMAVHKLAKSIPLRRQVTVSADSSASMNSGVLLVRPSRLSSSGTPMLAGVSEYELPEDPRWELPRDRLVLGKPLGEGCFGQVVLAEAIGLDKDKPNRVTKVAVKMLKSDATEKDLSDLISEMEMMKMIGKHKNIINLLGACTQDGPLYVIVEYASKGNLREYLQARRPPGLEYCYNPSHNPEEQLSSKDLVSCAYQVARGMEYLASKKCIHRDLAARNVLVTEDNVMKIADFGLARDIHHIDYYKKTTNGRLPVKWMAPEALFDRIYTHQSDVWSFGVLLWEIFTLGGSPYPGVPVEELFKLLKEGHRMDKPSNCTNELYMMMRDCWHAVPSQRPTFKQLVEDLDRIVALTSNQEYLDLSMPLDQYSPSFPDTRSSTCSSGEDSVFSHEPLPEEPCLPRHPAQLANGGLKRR"}, "[40]": {"biological_target": "D(2) dopamine receptor (Homo sapiens) (UniProt P14416)", "details": "Compound concentration 10.0 uM"}, "[41]": {"biological_target": "Ephrin type-A receptor 7 (Homo sapiens) (UniProt Q15375)", "details": "Compound concentration 1.0 uM"}, "[42]": {"biological_target": "Inhibitor of nuclear factor kappa-B kinase subunit alpha (Homo sapiens) (UniProt O15111)", "sequence (O15111 whole entry)": "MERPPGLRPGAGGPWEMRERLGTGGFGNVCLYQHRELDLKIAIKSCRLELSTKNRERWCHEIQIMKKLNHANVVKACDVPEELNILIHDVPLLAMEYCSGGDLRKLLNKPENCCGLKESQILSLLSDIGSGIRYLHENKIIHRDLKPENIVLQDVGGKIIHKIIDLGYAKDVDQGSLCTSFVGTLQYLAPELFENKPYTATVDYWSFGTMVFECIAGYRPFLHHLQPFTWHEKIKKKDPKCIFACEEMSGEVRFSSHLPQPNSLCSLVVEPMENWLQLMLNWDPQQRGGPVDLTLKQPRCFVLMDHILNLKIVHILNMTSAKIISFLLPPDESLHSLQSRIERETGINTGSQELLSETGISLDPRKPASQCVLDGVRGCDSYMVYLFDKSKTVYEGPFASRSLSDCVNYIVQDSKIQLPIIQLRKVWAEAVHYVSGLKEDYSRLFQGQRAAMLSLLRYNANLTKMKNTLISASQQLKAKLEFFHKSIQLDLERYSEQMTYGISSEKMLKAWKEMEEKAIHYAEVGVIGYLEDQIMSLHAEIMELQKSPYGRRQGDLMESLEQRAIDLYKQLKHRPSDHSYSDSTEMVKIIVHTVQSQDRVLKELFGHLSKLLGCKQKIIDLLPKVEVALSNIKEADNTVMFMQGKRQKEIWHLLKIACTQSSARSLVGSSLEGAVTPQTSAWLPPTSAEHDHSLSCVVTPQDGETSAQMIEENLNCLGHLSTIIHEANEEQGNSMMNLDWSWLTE", "assay": "CHUK_IKKA Invitrogen Lab (UK) kinase screen (BI)"}}, "data": [{"smiles": "CCC(F)(F)c1cc(N2CCC(S(C)(=O)=O)CC2)nc2sc(C(N)=O)c(N)c12", "note": "[BI-605906]", "values": [{"measurement": "residual activity", "setting": "[1]; Compound concentration 1.0 uM", "result": 89, "unit": "%"}, {"measurement": "residual activity", "setting": "[1]; Compound concentration 10.0 uM", "result": 101, "unit": "%"}, {"measurement": "residual activity", "setting": "[2]", "result": 108, "unit": "%"}, {"measurement": "residual activity", "setting": "[3]", "result": 95, "unit": "%"}, {"measurement": "residual activity", "setting": "[4]", "result": 84, "unit": "%"}, {"measurement": "residual activity", "setting": "[5]", "result": 90, "unit": "%"}, {"measurement": "residual activity", "setting": "[6]", "result": 89.1, "unit": "%"}, {"measurement": "residual activity", "setting": "[7]; Compound concentration 1.0 uM", "result": 85, "unit": "%"}, {"measurement": "residual activity", "setting": "[7]; Compound concentration 10.0 uM", "result": 96, "unit": "%"}, {"measurement": "residual activity", "setting": "[8]", "result": 88, "unit": "%"}, {"measurement": "residual activity", "setting": "[9]", "result": 109, "unit": "%"}, {"measurement": "inhibition", "setting": "[10]", "result": 8.94, "unit": "%"}, {"measurement": "residual activity", "setting": "[11]; Compound concentration 10.0 uM", "result": 103, "unit": "%"}, {"measurement": "residual activity", "setting": "[11]; Compound concentration 100.0 uM", "result": 102, "unit": "%"}, {"measurement": "residual activity", "setting": "[12]", "result": 99, "unit": "%"}, {"measurement": "residual activity", "setting": "[13]", "result": 97, "unit": "%"}, {"measurement": "residual activity", "setting": "[14]", "result": 88, "unit": "%"}, {"measurement": "residual activity", "setting": "[15]", "result": 98, "unit": "%"}, {"measurement": "inhibition", "setting": "[16]", "result": 25.7, "unit": "%"}, {"measurement": "residual activity", "setting": "[17]", "result": 52, "unit": "%"}, {"measurement": "residual activity", "setting": "[18]", "result": 90, "unit": "%"}, {"measurement": "residual activity", "setting": "[19]", "result": 83, "unit": "%"}, {"measurement": "residual activity", "setting": "[20]; Compound concentration 1.0 uM", "result": 95, "unit": "%"}, {"measurement": "residual activity", "setting": "[20]; Compound concentration 10.0 uM", "result": 80, "unit": "%"}, {"measurement": "residual activity", "setting": "[21]", "result": 81, "unit": "%"}, {"measurement": "residual activity", "setting": "[22]", "result": 80, "unit": "%"}, {"measurement": "residual activity", "setting": "[23]", "result": 86, "unit": "%"}, {"measurement": "inhibition", "setting": "[24]", "result": 8.77, "unit": "%"}, {"measurement": "residual activity", "setting": "[25]", "result": 88, "unit": "%"}, {"measurement": "residual activity", "setting": "[26]", "result": 96, "unit": "%"}, {"measurement": "residual activity", "setting": "[27]; Compound concentration 1.0 uM", "result": 68, "unit": "%"}, {"measurement": "residual activity", "setting": "[27]; Compound concentration 10.0 uM", "result": 67, "unit": "%"}, {"measurement": "residual activity", "setting": "[28]", "result": 79, "unit": "%"}, {"measurement": "residual activity", "setting": "[29]", "result": 93, "unit": "%"}, {"measurement": "residual activity", "setting": "[30]", "result": 98, "unit": "%"}, {"measurement": "residual activity", "setting": "[31]", "result": 74, "unit": "%"}, {"measurement": "residual activity", "setting": "[32]", "result": 81, "unit": "%"}, {"measurement": "residual activity", "setting": "[33]", "result": 108, "unit": "%"}, {"measurement": "residual activity", "setting": "[34]", "result": 96, "unit": "%"}, {"measurement": "residual activity", "setting": "[35]", "result": 97, "unit": "%"}, {"measurement": "residual activity", "setting": "[36]", "result": 100, "unit": "%"}, {"measurement": "residual activity", "setting": "[37]", "result": 87, "unit": "%"}, {"measurement": "residual activity", "setting": "[38]", "result": 100, "unit": "%"}, {"measurement": "residual activity", "setting": "[39]; Compound concentration 1.0 uM", "result": 84, "unit": "%"}, {"measurement": "residual activity", "setting": "[39]; Compound concentration 10.0 uM", "result": 91, "unit": "%"}, {"measurement": "residual activity", "setting": "[40]", "result": 100, "unit": "%"}, {"measurement": "residual activity", "setting": "[41]", "result": 87, "unit": "%"}, {"measurement": "residual activity", "setting": "[42]; Compound concentration 1.0 uM", "result": 67, "unit": "%"}, {"measurement": "residual activity", "setting": "[42]; Compound concentration 10.0 uM", "result": 27, "unit": "%"}]}]}
